Consider five molecules from patent publication US20060094013A1, “Salt-inducible kinases 2 and use thereof” (priority 2002, published 2006).

As a reminder, the inhibition is the change of the read-out against control, counted positive when it falls. Lower therefore signals a weak effect.

The target of assay [1] is T1, SIK (Mus musculus, UniProt Q8CFH6).
T1 construct: the full-length cDNA in the protein translation region of SIK2 was amplified by the RT-PCR method; made in house; host or cells: COS-7
The assay is described as follows: Phosphorylating activity of GST-SIK2 on Syntide 2 in the presence of a p300 peptide (method of Lin et al.). Format: biochemical. Conditions: GST-SIK2 expressed in COS-7 cells. The method, then:
It was studied whether or not a peptide p300 is phosphorylated by SIK when serine at position 89 in p300 is substituted with alanine (S89A). Moreover, it was also studied whether or not the peptide p300 [84-93 (S89A)] can inhibit the phosphorylating activity of SIK. When the activity of SIK2 was measured by the method of Lin et al., a DMSO solution containing 5% DMSO (dimethyl sulfoxide) and staurosporine was added. SIK2 was allowed to express in the form of a GST binding form in COS-7 cells, and it was then purified using GST-Mirospin kit from Amersham Pharmacia.
The left lane and the central lane show the results regarding a synthetic substrate (Syntide 2) phosphorylated by SIK.

The subject of assay [2] is CRE-suppressing activity of SIK. The assay is described as follows: CRE activity in cells with PKA and SIK, peptide bound to the GFPC carrier. The settings on record: peptide bound to C-terminus of GFP; PKA and SIK present. Type of assay: cell-based. The source says: GFPC is a C-terminus binding-type green fluorescent protein. GFPC is used as a peptide carrier, wherein a peptide of interest binds to the C-terminus of GFP. […] The grey one is CRE activity obtained when both PKA and SIK exist.

In a further assay the target is T2, mouse SIK2 (Mus musculus, UniProt Q8CFH6).
T2 construct: the full-length cDNA in the protein translation region of SIK2 was amplified by the RT-PCR method; made in house; host or cells: COS-7
Description: Protein-phosphorylating activity of purified GST-mSIK2 (auto-phosphorylation and GST-Syntide 2 phosphorylation, 32P, SDS-PAGE). Type of assay: biochemical. The method, then: The obtained GST-mSIK2 was mixed with 1 μl of GST-Syntide 2 (Lin et al., as describe above) and [^32P]-[…] (37 kBq; manufactured by ICN) in the presence of a 50 mM Tris-HCl buffer solution (pH 8.0) and 10 mM MnCl2 (20 μl in total). The mixture was allowed to react at 30° C. for 1 hour. The reaction was then terminated by adding 10 μl of an SDS-sample buffer and heating at 100° C. for 5 minutes. 10 μl of the reacted sample was separated using 15% SDS-PAGE, and the SDS-PAGE gel was then dried. The intake of ^32P was detected by exposing it to light for 30 minutes, using an X-ray film (MS-film; manufactured by Kodac). […] For comparison purpose, GST-rat SIK1 and GST-rat SIK1 (K56M) were subjected to the same experiment. Consequently, the same results were obtained.
A GST-mSIK2 protein that was allowed to express in COS-7 cells and then purified was mixed with DMSO solutions containing 5% DMSO and 5% each of 1, 10, 100 nM staurosporine (Sigma) ina reaction system in the test tube used in Example 3. Thereafter, phosphorylating activity was detected by the SDS-PAGE method, so as to evaluate the inhibition of enzyme activity of mouse SIK2 by staurosporine. […] The auto-phosphorylating activity and GST-Syntide 2-phosphorylating activity of GST-mSIK2 were approximately 30% inhibited even by the single use of DMSO. […] It was inhibited by 1 nM staurosporine until the residual activity became approximately 20%. By 10 nM and 100 nM staurosporines, it was almost 100% inhibited.

The test system of assay [3] is SIK. The assay is described as follows: Immunostaining of dexamethasone-induced SIK in 3T3-L1 cells with antibodies specific for the phosphorylation state. Type of assay: cell-based. The method, then:
3T3-L1 cells were inoculated on 96-well plates, and the cells were cultured until they became confluent. The medium placed in such a plate was DMEM/10% FCS. The culture was carried out at 37° C. in 5% CO2. Thereafter, dexamethasone was added to each of the plates, thereby resulting in a concentration of dexamethasone of 1 μM, so that SIK was induced. After 1 hour had passed after the induction, an SIK inhibitor, staurosporine, was added to the plates, thereby resulting in concentrations of 10, 100, and 1,000 nM. Thereafter, the culture was further carried out for 1 hour. […] Subsequently, the cells were added to PBS containing 4% paraformaldehyde, and the mixture was then left at room temperature for 15 minutes, so that the cells were immobilized. Thereafter, the cells were washed with PBS 4 times, and they were then allowed to react with a blocking solution obtained by dissolving 1% skimmed milk in TBST (TBS containing 0.1% Tween 20). Subsequently, 100 μl of antiserum (500 times diluted) containing an antibody binding to SIK1 wherein serine at position 577 is phosphorylated, an antibody binding to SIK1 wherein threonine at position 182 and serine at position 186 are phosphorylated, an anti-SIK antibody, or an antibody binding to SIK1 wherein serine at position 577 is not phosphorylated, was added to the same above blocking solution. The obtained mixture was reacted overnight. After completion of the reaction overnight, an unreacted antibody portion was eliminated by washing with PBS 4 times. A solution obtained by 1,000 times diluting an HRP-labeled anti-rabbit IgG secondary antibody was added to a reaction solution obtained by dissolving 1% skimmed milk in TBS, and the mixture was then reacted at room temperature for 2 hours. Thereafter, the resultant product was washed with PBS 4 times. The antigen-antibody reaction was visualized using Konica Immuno Stain HRP reagent (manufactured by Konica).

The subject of another assay is SIK2 gene. The assay is described as follows: SIK2 mRNA level after incubation with hormones (Northern blot). Format: cell-based. The settings on record: used singly, 2 hours; insulin 1 μg/ml, cAMP 1 mM, dexamethasone 1 μM.
A further assay concerns CRE. The assay is described as follows: CRE luciferase reporter assay in precursor fat cells 3T3-L1. Type of assay: cell-based. Conditions: 50 ng/ml; SIK2 not highly expressed. The method, then:
For the purpose of detecting the CRE transcription-suppressing activity of SIK2, using Lipofectoamin 200 reagent (2 μl; manufactured by Invitrogen), 200 ng each of pTarget-SIK2 and pTarget-SIK2 (K49M), together with an expression vector (pTAL-CRE; 200 ng; manufactured by Clontech) in which a luciferase gene is located under the control of CRE, were introduced into precursor fat cells 3T3-L1. Moreover, mSIK2 (S587A) having a destroyed PKA phosphorylated portion, which was predicted to exist in mouse SIK2 domain 3 from the findings regarding rat SIK1, was introduced therein, using oligo DNA represented by SEQ ID NO: 16.
In the thus produced mSIK2 (S587A), serine at position 587 was substituted with alanine with respect to the full-length SIK2. For correction of introduction efficiency, a vector (pRL-SC40; 30 ng; manufactured by Promega) that allows luciferase derived from Renilla to express under an SV40 promoter was co-introduced therein. 16 hours later, the cells were stimulated with forskolin (50 μM) for 6 hours, so as to activate CRE. Thereafter, the cells were recovered, and the expression level of a reporter gene was analyzed using Dual Luciferase Assay kit (manufactured by Promega).
The corrected pTAL-CRE-derived activity was divided by the activity derived from pTAL, so as to obtain a specific activity derived from CRE. […]
For orientation: Reporter assays use an easily measured gene product as a stand-in for the process of interest.

The test system of a further assay is Gal-CREB (full-length). The assay is described as follows: Gal4-CREB (full-length) luciferase reporter assay. Type of assay: cell-based. The settings on record: 50 ng/ml. The method, then: (§1) In addition, CREB was introduced into the N-terminal side of the Gal4 protein of budding yeast (Gal4 DNA binding domain; Gal4DB). Using a plasmid wherein a reporter gene (fire fly luciferase) was introduced downstream of a promoter having a sequence consisting of 5 consecutive Gal4-binding sequences, the ability of DB to transcribe CREB without the medium of CRE was analyzed. In the case of a Gal-CREB (full-length) system, since it has a bZIP domain, the transcription was inhibited by SIK2 and TNFα (refer to FIG. 9B).

The subject of another assay is Gal4-CREB(-bZIP). The assay is described as follows: Gal4-CREB(-bZIP) luciferase reporter assay. Format: cell-based. Conditions: 50 ng/ml. The method, then: as §1
The mark [4] stands for this setting: 10, 100, 1,000 nM staurosporine.

T2 sequence (Q8CFH6 whole entry): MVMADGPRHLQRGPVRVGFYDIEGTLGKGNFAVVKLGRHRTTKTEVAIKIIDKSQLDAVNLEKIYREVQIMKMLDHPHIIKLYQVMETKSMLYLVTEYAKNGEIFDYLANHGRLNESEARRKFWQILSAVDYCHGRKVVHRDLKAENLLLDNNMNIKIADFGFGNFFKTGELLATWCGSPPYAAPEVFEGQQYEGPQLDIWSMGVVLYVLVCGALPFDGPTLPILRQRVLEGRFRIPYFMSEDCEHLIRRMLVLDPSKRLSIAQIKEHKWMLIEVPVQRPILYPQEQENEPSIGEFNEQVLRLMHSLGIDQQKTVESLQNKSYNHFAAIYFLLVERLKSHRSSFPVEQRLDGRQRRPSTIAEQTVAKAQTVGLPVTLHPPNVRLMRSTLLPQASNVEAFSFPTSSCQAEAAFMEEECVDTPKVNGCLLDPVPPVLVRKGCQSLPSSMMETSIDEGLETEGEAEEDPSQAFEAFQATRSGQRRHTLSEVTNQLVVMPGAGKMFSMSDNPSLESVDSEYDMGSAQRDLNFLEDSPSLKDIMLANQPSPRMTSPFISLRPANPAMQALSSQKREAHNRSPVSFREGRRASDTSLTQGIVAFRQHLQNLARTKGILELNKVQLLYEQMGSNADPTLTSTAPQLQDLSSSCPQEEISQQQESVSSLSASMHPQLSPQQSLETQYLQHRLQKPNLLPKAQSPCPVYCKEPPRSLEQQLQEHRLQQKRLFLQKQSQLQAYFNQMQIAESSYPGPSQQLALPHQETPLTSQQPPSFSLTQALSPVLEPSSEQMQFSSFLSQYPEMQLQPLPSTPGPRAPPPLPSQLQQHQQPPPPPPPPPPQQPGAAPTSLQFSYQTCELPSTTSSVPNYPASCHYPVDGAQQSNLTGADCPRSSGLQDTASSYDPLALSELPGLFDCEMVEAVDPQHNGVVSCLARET
T1 sequence (Q8CFH6 whole entry): as above
Description for SIK2 gene: The SIK2 gene was incubated with each of these hormones, and with the mixture consisting of the 3 types of hormones, for 2 hours. Thereafter, the mRNA level of SIK2 was measured. […] The measurement was carried out by the Northern blot analysis using cDNA probes.

Consider “p300 [84-93 (S89A)]: peptide p300 residues 84-93 with serine at position 89 substituted with alanine; bound to GFPC carrier in the cell test (LLRSGASPNL)”, for which the “effect on enzyme activity of SIK (Syntide 2 phosphorylation)” value with SIK [1] is “inhibits the enzyme activity of SIK”. Besides, the “effect on CRE-suppressing activity of SIK in cells” value in assay [2] is “inhibits the CRE-suppressing activity of SIK in cells”.
In the case of `CN[C@@H]1C[C@H]2O[C@@](C)([C@@H]1OC)n1c3ccccc3c3c4c(c5c6ccccc6n2c5c31)C(=O)NC4` [staurosporine], the “residual phosphorylating activity of SIK2” value on mouse SIK2 (1 nM staurosporine in 5% DMSO solution) is on record as “approximately 20%”. At mouse SIK2 (10 nM staurosporine), the inhibition at 0.01 µM was approximately 100%. The inhibition at 0.1 µM against mouse SIK2 (100 nM staurosporine) was approximately 100%. The “concentration dependence of inhibition of phosphorylating activity of SIK2” value on mouse SIK2 (1, 10, 100 nM) was “concentration-dependently inhibited”. Besides, in the assay on SIK [3] (10 nM staurosporine, 1 hour), the “reaction of anti-phosphorylation Ser577 antibody with SIK” value is “significantly decreased” and the “reaction of anti-phosphorylation Thr182-Ser186 antibody with SIK” value was “significantly decreased”. For the same molecule, in the assay on SIK [3] (setting [4]), the “reaction of SIK with anti-SIK1 antibody” value is on record as “not significantly decreased” and the “reactivity of antibody binding to SIK1 wherein serine at position 577 is not phosphorylated” value is listed as “increased depending on the concentration of staurosporine”.
Consider insulin, for which the “effect on transcription of the SIK2 gene (mRNA level)” value with SIK2 gene is recorded as “promoted the transcription of the SIK2 gene”.
As to `C[S+](C)[O-]` [DMSO, dimethyl sulfoxide], at mouse SIK2 (single use of DMSO (5% DMSO)), the “inhibition of auto-phosphorylating activity and GST-Syntide 2-phosphorylating activity of GST-mSIK2” value is recorded as “approximately 30%”.
On to TNFα, for which, in the assay with CRE, the “effect on activation of CRE due to PKA” value is listed as “sufficiently suppressed the activation of CRE due to PKA”. Moreover, the “effect on transcription in Gal-CREB (full-length) system” value in the assay on Gal-CREB (full-length) is “inhibited”. Moreover, in the assay with Gal4-CREB(-bZIP), the “effect on transcription in Gal4-CREB(-bZIP) system” value is “suppressed”.
